The subject of test [1] is A549. Kind of test: Cytotoxicity against human A549 cells assessed as reduction in cell viability incubated for 72 hrs by MTT assay. Format: functional, cell-based. The note with it: A549, 72 h.
Test [2] deals with Hs-578T. Kind of test: Cytotoxicity against human Hs-578T cells assessed as cell growth inhibition. Format: functional, cell-based.
The test system of test [3] is NCI-H460. Kind of test: Cytotoxicity against human NCI-H460 cells assessed as cell growth inhibition. Format: functional.
In test [4] the test system is ACHN. Kind of test: Growth inhibition of human ACHN cells incubated for 48 hrs by SRB assay. The test is classed as functional.
The subject of test [5] is U-251. Kind of test: Growth inhibition of human U-251 cells incubated for 48 hrs by SRB assay. Format: functional.
Test [6] relates to MGC-803. Kind of test: Antiproliferative activity against human MGC-803 cells assessed as reduction in cell viability by MTT assay. Format: functional, cell-based.
Test [7] deals with 786-0. Kind of test: Cytotoxicity against human 786-0 cells assessed as cell growth inhibition. Format: functional.
Test [8] relates to A549. Kind of test: Cytotoxicity against human A549 cells assessed as cell growth inhibition. The test is classed as functional.
For test [9], the system named is MGC-803. Kind of test: Cytotoxicity against human MGC-803 assessed as inhibition of cell growth by MTT assay. The test is classed as functional, cell-based.
Test [10] relates to U-251. Kind of test: Cytotoxicity against human U-251 cells assessed as cell growth inhibition. The test is classed as functional.
Test [11] has as its system DU-145. Kind of test: Cytotoxicity against human DU-145 cells assessed as cell growth inhibition. Format: functional.
Test [12] has as its system SF-268. Kind of test: Antiproliferative activity against human SF-268 cells assessed as reduction in cell growth incubated for 48 hrs by SRB assay. Format: functional, cell-based. The note with it: SF-268, 48 h.
The subject of test [13] is NCI-H460. Kind of test: Cytotoxicity against human NCI-H460 cells assessed reduction in cell viability. Format: functional, cell-based.
For test [14], the system named is MCF7. Kind of test: Cytotoxicity against human MCF7 cells assessed as reduction in cell growth. The test is classed as functional, cell-based.
Test [15] has as its system ACHN. Kind of test: Growth inhibition of human ACHN cells. The test is classed as functional.
In test [16] the test system is L1210. Kind of test: Antiproliferative activity against mouse L1210 cells assessed as cell growth inhibition measured after 72 hrs by MTT assay. Format: functional, cell-based. The following applies: L1210, 72 h.
The subject of test [17] is HL-60. Kind of test: Cytotoxicity against human HL-60 cells assessed as cell growth inhibition by MTT assay. The test is classed as functional.
Test [18] relates to NCI-N87. Kind of test: Cytotoxicity against human NCI-N87 cells. Format: functional, cell-based.
Test [19] deals with PC-3. Kind of test: Cytotoxicity against human PC-3 cells assessed as inhibition of cell growth. Format: functional, cell-based.

The structures appear in SMILES notation. ≈ marks a conversion by molar mass, not a printed value.

This passage reports IC50 and GI50 results from ChEMBL document CHEMBL5385851, “Natural quinazolinones: From a treasure house to promising anticancer leads” (Eur J Med Chem, 2023).

For `O=c1c2ccccc2nc2n1C(O)c1cc3ccccc3nc1-2` (centres undefined), the IC50 in [1] came out at 9 µg/mL (≈ 29.9 µM).
`COC1c2cc3ccccc3nc2-c2nc3ccccc3c(=O)n21` (centres undefined): in [2], the IC50 is 9 µg/mL (≈ 28.5 µM).
On to `O=c1c2ccccc2nc2n1CCc1c-2[nH]c2ccc(Br)cc12`, for which, in test [3], the GI50 stood at 1550 nM.
`CN1c2ccccc2C(=O)N2CCc3c([nH]c4ccc(Br)cc34)C21` (centres undefined): the GI50 amounted to 400 nM in test [4] and 300 nM in test [5].
As to `O=c1c2ccccc2nc2n1CC[C@@H]2O`, the IC50 in test [6] is 94500 nM.
Regarding `COc1ccc2c3c([nH]c2c1)-c1nc2ccccc2c(=O)n1CC3`, the GI50 in test [7] amounted to 310 nM; in test [8] it was 750 nM.
Consider `O=c1c2ccccc2nc2n1CC[C@@H]2O[C@@H]1O[C@H](CO)[C@@H](O)[C@H](O)[C@H]1O`, for which the IC50 in test [9] amounted to 84100 nM.
`O=C1c2ccccc2NC2c3[nH]c4ccccc4c3CCN12` (centres undefined): the GI50 was 20 nM in [10] and 200 nM in [11].
With `CC(=O)C[C@]1(O)c2ccccc2-n2c1nc1ccccc1c2=O`, the results for the IC50 in test [12], in test [13] and in test [14] were 43900 nM, 27000 nM and 33800 nM, respectively.
With `CSc1ccc2[nH]c3c(c2c1)CCN1C(=O)c2ccccc2NC31` (centres undefined), the GI50 in test [15] was determined as 80 nM.
Consider `O=c1c2ccccc2nc2n1Cc1cc3cccnc3nc1-2`, for which the IC50 in test [16] is 130 nM.
In the case of `O=c1c2ccccc2nc2n1CCc1c-2[nH]c2c(Cl)c(Cl)ccc12`, in [17], the GI50 was 150 nM.
For `O=c1c2ccc(O)cc2nc2c3[nH]c4ccccc4c3ccn12`, the IC50 in [18] came out at 27900 nM; in [19], 17400 nM.
